Tested on: SD rats
Test: 2-week repeated oral dose toxicity study
Format: in vivo
Details: for Abnormal gross findings of necropsy (changed animals / total) / Basophils / Body Weight (at necropsy) / Brain weight / CH / CHCM / Eosinophils / HDW / Heart weight / Hematocrit / Hemoglobin / LUC / Left adrenal weight / Left kidney weight / Left testis weight / Liver weight / Lung weight / Lympocytes / MCH / MCHC / MCV / MPV / Monocytes / Mortality (dead animals / total number of animals) / Neutrophils / Platelet / RBC / RDW / Rate body weight / brain / Rate body weight / heart / Rate body weight / left adrenal / Rate body weight / left kidney / Rate body weight / left testis / Rate body weight / liver / Rate body weight / lung / Rate body weight / right adrenal / Rate body weight / right kidney / Rate body weight / right testis / Rate body weight / spleen / Rate body weight / thymus / Retic / Right adrenal weight / Right kidney weight / Right testis weight / Spleen weight / Symptomatic signs / Thymus weight / WBC: 2 weeks
Protocol: KMS88009 was orally administered once a day by gavage for 14 consecutive days at dose level of 0 (vehicle), 100, 300 and 1,000 mg/kg (n = 5 per group). […] Organs were collected at necropsy; adrenal, kidney, thymus, spleen, heart, lung, liver, testis and brain. The absolute organ weights were measured and the organs-to-body weight ratios were calculated. Blood samples for hematological evaluation were collected from vein of animals under ether anesthesia. Food was withheld overnight before necropsy and blood collections. EDTA was used as an anticoagulant for hematology samples. White blood cell (WBC), red blood cell (RBC), hemoglobin concentration (HGB), hematocrit (HCT), mean corpuscular volume (MCV), mean corpuscular hemoglobin (MCH), mean corpuscular hemoglobin concentration (MCHC), cell hemoglobin concentration mean (CHCM), cell hemoglobin (CH), red cell distribution width (RDW), hemoglobin distribution width (HDW), platelet count (PLT), mean platelet volume (MPV) and reticulocyte were measured by a hematological autoanalyzer (ADVIA 120, Bayer, USA). To get the serum for biochemical analyses, blood samples in a separation tube were centrifuged at 4,000 rpm for 10 min on the day of necropsy. The serum was kept frozen at -70°C until analysis. Sodium citrate was used as an anticoagulant for biochemical analyses. Serum biochemical parameters including aspartate aminotransferase (AST), alanine aminotransferase (ALT), alkaline phosphatase (ALP), total bilirubin (T-Bil), albumin, total protein (TP), albumin/globulin ratio (A/G ratio), glucose, total cholesterol (CHO), triglyceride (TG), lactate dehydrogenase (LDH), creatine kinase (CK), blood urea nitrogen (BUN), creatinine (CRE), blood urea nitrogen/creatinine ratio (B/C ratio), Na^+, K^+ and Cl^- were evaluated by an autoanalyzer (Shimadzu CL-7200, Shimadzu Co., Japan).
All data for single and 2-week repeated oral dose toxicity studies were expressed as the mean ± SD Difference between control and treated groups were evaluated with one-way analysis of variance (ANOVA) followed by Dunnett's test. Value P<0.05 was taken as being statistically significant. Statistical analyses were performed using GraphPad Prism software (USA).

For `COc1ccc2cc(C=Cc3ccc(N(C)C)cc3)oc2c1` [KMS88009, 6-methoxy-2-(4-dimethylaminostyryl) benzofuran], the no-observed-adverse-effect-level (SD rats, 2-week repeated oral administration) was “over 1,000 mg/kg”, the “Abnormal gross findings of necropsy (changed animals / total)” value (rats PO 100 mg/kg/day) was 0 / 5 and the Basophils (rats PO 100 mg/kg/day) was 0.02 ± 0.01 x10^3/μL. The “Body Weight (at necropsy)” value (rats PO 100 mg/kg/day) was 316.188 ± 16.093 g, the Brain weight (rats PO 100 mg/kg/day) was 1.948 ± 0.032 g and the CH (rats PO 100 mg/kg/day) was 20.3 ± 0.4 pg. The CHCM (rats PO 100 mg/kg/day) was 34.0 ± 0.4 g/dL, the Eosinophils (rats PO 100 mg/kg/day) was 0.07 ± 0.08 x10^3/μL and the HDW (rats PO 100 mg/kg/day) was 2.22 ± 0.08 g/dL. It also gave a Heart weight (rats PO 100 mg/kg/day) of 1.067 ± 0.098 g, a Hematocrit (rats PO 100 mg/kg/day) of 43.2 ± 2.6% and a Hemoglobin (rats PO 100 mg/kg/day) of 14.3 ± 1.0 g/dL. For the same compound, the LUC (rats PO 100 mg/kg/day) was 0.03 ± 0.02 x10^3/μL, the Left adrenal weight (rats PO 100 mg/kg/day) was 0.027 ± 0.005 g and the Left kidney weight (rats PO 100 mg/kg/day) was 1.279 ± 0.083 g. For the same compound, the Left testis weight (rats PO 100 mg/kg/day) was 1.440 ± 0.114 g, the Liver weight (rats PO 100 mg/kg/day) was 10.988 ± 0.881 g and the Lung weight (rats PO 100 mg/kg/day) was 1.212 ± 0.077 g. For the same compound, the Lympocytes (rats PO 100 mg/kg/day) was 6.64 ± 1.79 x10^3/μL, the MCH (rats PO 100 mg/kg/day) was 19.8 ± 0.5 pg and the MCHC (rats PO 100 mg/kg/day) was 33.1 ± 0.5 g/dL. For the same compound, the MCV (rats PO 100 mg/kg/day) was 59.7 ± 1.3 fL, the MPV (rats PO 100 mg/kg/day) was 7.66 ± 0.2 fL and the Monocytes (rats PO 100 mg/kg/day) was 0.12 ± 0.03 x10^3/μL. The “Mortality (dead animals / total number of animals)” value (rats PO 100 mg/kg/day) was 0 / 5, the Neutrophils (rats PO 100 mg/kg/day) was 1.74 ± 0.68 x10^3/μL and the Platelet (rats PO 100 mg/kg/day) was 1283 ± 239 x10^3/μL. The RBC (rats PO 100 mg/kg/day) was 7.25 ± 0.46 x10^6/μL, the RDW (rats PO 100 mg/kg/day) was 12.0 ± 0.3% and the “Rate body weight / brain” value (rats PO 100 mg/kg/day) was 0.617 ± 0.026%. The “Rate body weight / heart” value (rats PO 100 mg/kg/day) was 0.337 ± 0.024%, the “Rate body weight / left adrenal” value (rats PO 100 mg/kg/day) was 0.009 ± 0.002% and the “Rate body weight / left kidney” value (rats PO 100 mg/kg/day) was 0.404 ± 0.009%. For the same compound, the “Rate body weight / left testis” value (rats PO 100 mg/kg/day) was 0.456 ± 0.036%, the “Rate body weight / liver” value (rats PO 100 mg/kg/day) was 3.473 ± 0.154% and the “Rate body weight / lung” value (rats PO 100 mg/kg/day) was 0.384 ± 0.031%. For the same compound, the “Rate body weight / right adrenal” value (rats PO 100 mg/kg/day) was 0.008 ± 0.001%, the “Rate body weight / right kidney” value (rats PO 100 mg/kg/day) was 0.414 ± 0.026% and the “Rate body weight / right testis” value (rats PO 100 mg/kg/day) was 0.459 ± 0.042%. The “Rate body weight / spleen” value (rats PO 100 mg/kg/day) was 0.230 ± 0.048%, the “Rate body weight / thymus” value (rats PO 100 mg/kg/day) was 0.205 ± 0.022% and the Retic (rats PO 100 mg/kg/day) was 324.8 ± 18.9 ^* x10^3/μL. It also gave a Right adrenal weight (rats PO 100 mg/kg/day) of 0.025 ± 0.002 g, a Right kidney weight (rats PO 100 mg/kg/day) of 1.310 ± 0.101 g and a Right testis weight (rats PO 100 mg/kg/day) of 1.450 ± 0.133 g. The Spleen weight (rats PO 100 mg/kg/day) was 0.731 ± 0.188 g, the Symptomatic signs (rats PO 100 mg/kg/day) was “-” and the Thymus weight (rats PO 100 mg/kg/day) was 0.649 ± 0.073 g. For the same compound, the WBC (rats PO 100 mg/kg/day) was 8.62 ± 1.70 x10^3/μL, the Body weight (rats PO 100 mg/kg/day, day 1) was 227.6 ± 7.8 g and the Body weight (rats PO 100 mg/kg/day, day 4) was 253.1 ± 7.0 g. The Body weight (rats PO 100 mg/kg/day, day 8) was 297.2 ± 9.3 g, the Body weight (rats PO 100 mg/kg/day, day 11) was 321.2 ± 13.1 g and the Body weight (rats PO 100 mg/kg/day, day 14) was 344.4 ± 17.1 g. For the same compound, the “Abnormal gross findings of necropsy (changed animals / total)” value (rats PO 300 mg/kg/day) was 0 / 5, the Basophils (rats PO 300 mg/kg/day) was 0.01 ± 0.01 x10^3/μL and the “Body Weight (at necropsy)” value (rats PO 300 mg/kg/day) was 312.382 ± 14.169 g. For the same compound, the Brain weight (rats PO 300 mg/kg/day) was 1.680 ± 0.211 g, the CH (rats PO 300 mg/kg/day) was 20.4 ± 0.7 pg and the CHCM (rats PO 300 mg/kg/day) was 34.2 ± 0.3 g/dL. For the same compound, the Eosinophils (rats PO 300 mg/kg/day) was 0.03 ± 0.01 x10^3/μL, the HDW (rats PO 300 mg/kg/day) was 2.28 ± 0.12 g/dL and the Heart weight (rats PO 300 mg/kg/day) was 1.002 ± 0.038 g. For the same compound, the Hematocrit (rats PO 300 mg/kg/day) was 41.4 ± 1.9%, the Hemoglobin (rats PO 300 mg/kg/day) was 13.9 ± 0.7 g/dL and the LUC (rats PO 300 mg/kg/day) was 0.02 ± 0.01 x10^3/μL. It also gave a Left adrenal weight (rats PO 300 mg/kg/day) of 0.026 ± 0.004 g, a Left kidney weight (rats PO 300 mg/kg/day) of 1.237 ± 0.082 g and a Left testis weight (rats PO 300 mg/kg/day) of 1.515 ± 0.189 g. The Liver weight (rats PO 300 mg/kg/day) was 10.601 ± 0.687 g, the Lung weight (rats PO 300 mg/kg/day) was 1.214 ± 0.128 g and the Lympocytes (rats PO 300 mg/kg/day) was 3.98 ± 0.96 x10^3/μL. The MCH (rats PO 300 mg/kg/day) was 20.0 ± 0.6 pg, the MCHC (rats PO 300 mg/kg/day) was 33.4 ± 0.4 g/dL and the MCV (rats PO 300 mg/kg/day) was 59.7 ± 1.5 fL. The MPV (rats PO 300 mg/kg/day) was 7.84 ± 0.4 fL, the Monocytes (rats PO 300 mg/kg/day) was 0.08 ± 0.02 x10^3/μL and the “Mortality (dead animals / total number of animals)” value (rats PO 300 mg/kg/day) was 0 / 5. The Neutrophils (rats PO 300 mg/kg/day) was 0.84 ± 0.21 x10^3/μL, the Platelet (rats PO 300 mg/kg/day) was 1309 ± 50 x10^3/μL and the RBC (rats PO 300 mg/kg/day) was 6.93 ± 0.26 x10^6/μL. For the same compound, the RDW (rats PO 300 mg/kg/day) was 11.9 ± 0.4%, the “Rate body weight / brain” value (rats PO 300 mg/kg/day) was 0.537 ± 0.059% and the “Rate body weight / heart” value (rats PO 300 mg/kg/day) was 0.321 ± 0.011%. For the same compound, the “Rate body weight / left adrenal” value (rats PO 300 mg/kg/day) was 0.008 ± 0.001%, the “Rate body weight / left kidney” value (rats PO 300 mg/kg/day) was 0.396 ± 0.020% and the “Rate body weight / left testis” value (rats PO 300 mg/kg/day) was 0.487 ± 0.075%. The “Rate body weight / liver” value (rats PO 300 mg/kg/day) was 3.393 ± 0.133%, the “Rate body weight / lung” value (rats PO 300 mg/kg/day) was 0.389 ± 0.037% and the “Rate body weight / right adrenal” value (rats PO 300 mg/kg/day) was 0.008 ± 0.001%. For the same compound, the “Rate body weight / right kidney” value (rats PO 300 mg/kg/day) was 0.406 ± 0.008%, the “Rate body weight / right testis” value (rats PO 300 mg/kg/day) was 0.455 ± 0.023% and the “Rate body weight / spleen” value (rats PO 300 mg/kg/day) was 0.201 ± 0.037%. For the same compound, the “Rate body weight / thymus” value (rats PO 300 mg/kg/day) was 0.196 ± 0.036%, the Retic (rats PO 300 mg/kg/day) was 277.8 ± 39.6 x10^3/μL and the Right adrenal weight (rats PO 300 mg/kg/day) was 0.025 ± 0.004 g. The Right kidney weight (rats PO 300 mg/kg/day) was 1.266 ± 0.035 g, the Right testis weight (rats PO 300 mg/kg/day) was 1.420 ± 0.086 g and the Spleen weight (rats PO 300 mg/kg/day) was 0.629 ± 0.130 g. For the same compound, the Symptomatic signs (rats PO 300 mg/kg/day) was “-”, the Thymus weight (rats PO 300 mg/kg/day) was 0.613 ± 0.115 g and the WBC (rats PO 300 mg/kg/day) was 4.95 ± 1.05 x10^3/μL. The Body weight (rats PO 300 mg/kg/day, day 1) was 227.8 ± 7.1 g, the Body weight (rats PO 300 mg/kg/day, day 4) was 250.5 ± 9.9 g and the Body weight (rats PO 300 mg/kg/day, day 8) was 294.2 ± 14.6 g.
